Data: patent US20150306081A1, “Chemotherapy for Drug-Resistant Cancer Cells” (THE UNIVERSITY OF SYDNEY, priority 2012, published 2015)
Where two headings read alike, the source gives them in different places.

Assays:
[1] = biological target: T1, Pgp (Homo sapiens, UniProt P08183); experiment: Pgp-ATPase activity assay (Pgp-Glo)
Experimental: The ATPase activities of Pgp were determined using Pgp-enriched membranes and a luminescent ATP detection kit (Pgp-Glo Assay Kit, Promega, USA) according to the manufacturer's instructions. Briefly, Pgp membranes (0.5 mg/mL) and Mg(II)-ATP (5 mM) were incubated in the absence or presence of sodium orthovanadate (100 μM) for 40 min/37° C. and ATP detected as a luciferase-generated luminescent signal. Basal Pgp-ATPase activities were determined as the difference between the ATP hydrolysis in the presence or absence of sodium orthovanadate. Verapamil-stimulated Pgp-ATPase activity was measured in the presence of the Pgp control substrate, verapamil (200 μM).
Test substrates (Dp44mT and Bp4eT) of interest were dissolved in dimethyl sulfoxide. The final concentration of DMSO in the assay medium was less than 1%.
The Pgp Glo™ ATPase assay (Promega, Madison, Wis.) was used to assess if Dp44mT and Bp4eT are substrates of Pgp. The ATPase assay measures the Pgp-mediated ATPase activity of Pgp by quantitating ATP consumption in the presence of the compounds of interest after incubation with purified membrane proteins containing high levels of Pgp. […] The basal ATPase activity of Pgp is compared to the ATPase activity stimulated or inhibited by the compounds of interest.

[2] = test system: KBV1 cells; experiment: Lysosomal integrity, acridine orange flow cytometry, KBV1 cells; format: cell-based, Human; conditions: 30 min incubation
Experimental: Lysotracker® red (Life Technologies) and acridine orange (Sigma-Aldrich) are dyes showing high specificity for lysosomes and were used to determine lysosomal membrane permeability (LMP). The Lysotracker® red was visually assessed by fluorescence microscopy utilizing a Zeiss Axio Observer.Z1 Fluorescence Microscope equipped with an AxioCam camera (Zeiss, Oberkochen, Germany) and acridine orange was quantified by flow cytometry (see below).
Briefly, cells were incubated with Lysotracker® red (50 nM) for 15 min/37° C. or acridine orange (20 nM) for 15 min/37° C., washed on ice 3 times with ice-cold PBS and then incubated with Cu[Dp44mT] (25 μM) for 30 min/37° C. or Dp44mT alone (25 μM) for 30 min or 24 h/37° C.
(§1) The dyes, Rh123 and acridine orange were detected with the FACS Canto flow cytometer (BD Biosciences) and 10,000 events were acquired for every sample. Data analysis was performed using FlowJo software, version 7.5.5 (Tree Star Inc., Ashland, OR).

[3] = test system: Pgp-expressing KBV1 cells; experiment: MTT proliferation assay, KBV1 cells; format: cell-based, Human; conditions: for IC50: Homo sapiens, KB-V1, 72 h incubation; for IC50 / change of cytotoxicity in presence of Pgp inhibitors Val or Ela: KBV1 cells; for change of cytotoxicity in presence of Pgp inhibitors Val or Ela: Val 1 μM, Ela 0.1 μM, 72 h; for increase in resistance of KBV1 cells compared to KB31 cells: ratio of IC50, 72 h
[4] = test system: non-Pgp expressing KB31 cells; experiment: MTT proliferation assay, KB31 cells; format: cell-based, Human; conditions: for IC50: Homo sapiens, KB 3-1, 72 h incubation; for change of cytotoxicity in presence of Pgp inhibitors Val or Ela: Val 1 μM, Ela 0.1 μM, 72 h
[5] = test system: Pgp expressing 2008/P200A cells; experiment: MTT proliferation assay, 2008/P200A cells; format: cell-based; conditions: for change of cytotoxicity in presence of Pgp inhibitors Val or Ela: 2008/P200A cells, Val 1 μM, Ela 0.1 μM; for sensitivity of 2008/P200A cells compared to 2008 cells: 72 h
Experimental: (§2) The 2008 ovarian carcinoma cell line and the PAC-resistant 2008/P200A cell line (grown in 200 ng/mL of PAC) were kindly provided by Dr. John Allen (Centenary Institute, Sydney, Australia). Cells were grown in Dulbecco's modified Eagle's medium (DMEM; Life Technologies) with 10% (v/v) fetal calf serum (Sigma-Aldrich, St. Louis, Mo.) and supplemented with the following additions from Life Technologies: 1% (v/v) sodium pyruvate, 1% (v/v) non-essential amino acids, 100 U/mL penicillin, 100 μg/mL streptomycin, 2 mM L-glutamine and 0.28 μg/mL fungizone. The cells were then incubated at 37° C. in a humidified atmosphere of 5% CO2 and 95% air.
(§3) The effect of anti-cancer agents on cellular proliferation was examined using the MTT [3-(4,5-dimethylthiazol-2-yl)-2,5-diphenyl tetrazolium] method. In this assay, 3×10^3 cells/well were seeded in 96-well plates in 100 μL of media. The next day, serially diluted drugs of interest were added. […] The cells were incubated at 37° C. in a humidified atmosphere containing 5% CO2 and 95% air for 72 h. After this incubation, 10 μL of MIT (5 mg/mL) was added to each well and the incubation continued at 37° C. for 2 h. After solubilization of the cells with 100 μL of 10% SDS-50% isobutanol in 10 mM HCl, the plates were read at 570 nm using a scanning multi-well spectrophotometer (Victor™ Multilabel Counter plate reader; Perkin Elmer, Australia). Results were analyzed to calculate the concentration of chelator or complex necessary to reduce the absorbance to 50% (IC50) of the control.

[6] = test system: non-Pgp expressing 2008 cells; experiment: MTT proliferation assay, 2008 cells; format: cell-based; conditions: for change of cytotoxicity in presence of Pgp inhibitors Val or Ela: 2008 cells, Val 1 μM, Ela 0.1 μM; for sensitivity of 2008 cells: compared to 2008/P200A cells
Experimental: as §2, §3

[7] = test system: Pgp-expressing KBV1 cells; experiment: Uptake of radio-labeled drug, KBV1 cells; format: cell-based, Human; conditions: for effect of Pgp inhibitors Val and Ela on uptake: KBV1 cells, Val 1 μM or Ela 0.1 μM pre-incubation, versus control
Experimental: Cells were then washed on ice three times with ice-cold PBS and collected for analysis. Drug uptake was calculated as the number of drug molecules/cell. […] For studies using lysosomotropic agents, cells were pre-incubated with NH4Cl (5 mM), CLQ (100 μM) or MA (100 μM) for 30 min/37° C. prior to ^14C-Dp44mT uptake. […] For efflux assays, the same labeling procedure was conducted as in the uptake assay. […] After this procedure, the overlying media was removed using a Pasteur pipette and then placed in a counting vial. The cells were removed from the plate in 1 mL of PBS and then dispensed into a separate counting vial.

[8] = test system: non-Pgp expressing KB31 cells; experiment: Uptake of radio-labeled drug, KB31 cells; format: cell-based, Human; conditions: Val 1 μM or Ela 0.1 μM pre-incubation, versus control
Experimental: For the uptake assay, each 35 mm culture dish containing 5×10^5 cells was incubated with ^14C-doxorubicin, ^3H-vinblastine or ^14C-Dp44mT (all at 1 μCi) for 30 min/37° C. Cells were then washed on ice three times with ice-cold PBS and collected for analysis. Drug uptake was calculated as the number of drug molecules/cell. […] For studies using lysosomotropic agents, cells were pre-incubated with NH4Cl (5 mM), CLQ (100 μM) or MA (100 μM) for 30 min/37° C. prior to ^14C-Dp44mT uptake. […] For efflux assays, the same labeling procedure was conducted as in the uptake assay. […] After this procedure, the overlying media was removed using a Pasteur pipette and then placed in a counting vial. The cells were removed from the plate in 1 mL of PBS and then dispensed into a separate counting vial. The radiolabeled-drug efflux was calculated as a percentage of the total drug uptake by the cells found at zero time.

[9] = test system: non-Pgp expressing KB31 cells; experiment: Rhodamine 123 accumulation assay, KB31 cells; format: cell-based, Human; conditions: increased concentrations
Experimental: Cells were then harvested and resuspended in ice-cold PBS and kept on ice until flow cytometric analysis (see below).
as §1

[10] = test system: Pgp-expressing cells; conditions: reported by others; cited from earlier work
[11] = biological target: T1, Pgp; design: purchased Promega; conditions: reported by others, biochemical assays; cited from earlier work
[12] = Redox studies: oxidation of H2DCF, cell-free
Experimental: These studies were conducted in an acetate buffer (150 mM; pH 5) containing cysteine (100 μM) to mimic lysosomal conditions. In these experiments, hydrogen peroxide (100 μM) was added to initiate ROS generation.

[13] = test system: KBV1 cells; experiment: MTT cytotoxicity after transient knockdown of Pgp (MDR1 siRNA) in KBV1 cells; format: cell-based, Human; conditions: Pgp siRNA vs. Scr siRNA, 72 h
Experimental: as §3
For all siRNA treatments against MDR1 (MDR1-siRNA; Cat #: 4123, Life Technologies), a siRNAlipofectamine mixture (50 nM MDR1 siRNA and 1/400 lipofectamine 2000) was added to the cells (at 30% confluency) and incubated for 72 h/37° C. prior to further experimentation. The effectiveness of Pgp knockdown was confirmed using western blot and also assessing DOX cytotoxicity via the MTT assay. As a control, scrambled siRNA (Scr siRNA; Life Technologies) was used at the same concentration as MDR1 siRNA.

T1 sequence (P08183 whole entry): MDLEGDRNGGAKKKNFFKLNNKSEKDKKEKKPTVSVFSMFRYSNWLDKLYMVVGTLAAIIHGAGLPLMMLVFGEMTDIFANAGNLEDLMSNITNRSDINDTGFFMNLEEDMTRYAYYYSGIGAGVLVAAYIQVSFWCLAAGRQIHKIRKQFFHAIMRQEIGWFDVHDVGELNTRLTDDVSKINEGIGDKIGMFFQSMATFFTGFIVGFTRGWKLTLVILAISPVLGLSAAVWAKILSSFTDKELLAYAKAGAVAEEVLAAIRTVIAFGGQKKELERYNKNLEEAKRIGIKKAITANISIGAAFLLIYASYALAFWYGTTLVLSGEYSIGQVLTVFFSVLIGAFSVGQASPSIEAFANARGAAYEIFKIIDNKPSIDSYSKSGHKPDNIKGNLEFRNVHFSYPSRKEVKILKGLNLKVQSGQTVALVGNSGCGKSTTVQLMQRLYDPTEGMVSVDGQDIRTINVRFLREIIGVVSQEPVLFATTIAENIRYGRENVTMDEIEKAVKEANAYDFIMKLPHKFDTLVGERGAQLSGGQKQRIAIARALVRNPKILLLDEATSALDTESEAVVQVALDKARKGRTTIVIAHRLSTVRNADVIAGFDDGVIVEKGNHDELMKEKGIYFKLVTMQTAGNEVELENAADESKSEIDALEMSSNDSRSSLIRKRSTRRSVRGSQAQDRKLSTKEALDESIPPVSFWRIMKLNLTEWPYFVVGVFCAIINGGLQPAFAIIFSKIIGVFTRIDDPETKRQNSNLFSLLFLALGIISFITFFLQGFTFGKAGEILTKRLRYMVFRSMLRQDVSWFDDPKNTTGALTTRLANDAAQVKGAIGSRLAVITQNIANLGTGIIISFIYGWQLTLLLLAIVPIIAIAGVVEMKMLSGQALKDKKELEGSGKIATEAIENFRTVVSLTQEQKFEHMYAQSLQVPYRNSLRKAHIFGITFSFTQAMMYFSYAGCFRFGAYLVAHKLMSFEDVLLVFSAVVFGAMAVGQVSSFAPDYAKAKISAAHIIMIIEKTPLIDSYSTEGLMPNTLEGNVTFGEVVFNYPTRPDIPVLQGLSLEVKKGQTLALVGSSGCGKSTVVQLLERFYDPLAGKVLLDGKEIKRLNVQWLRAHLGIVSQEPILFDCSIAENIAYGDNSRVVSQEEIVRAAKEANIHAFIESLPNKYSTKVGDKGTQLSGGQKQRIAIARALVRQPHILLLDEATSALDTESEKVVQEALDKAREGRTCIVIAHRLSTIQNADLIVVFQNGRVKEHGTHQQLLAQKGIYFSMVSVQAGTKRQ

## [Cl][Fe]([Cl])[Cl] [FeCl3]
[1]
  Pgp-ATPase activity (in words): Neither FeCl3 nor CuCl2 significantly stimulated ATPase activity
[2]
  lysosomal integrity (acridine orange): did not compromise lysosomal integrity

## CC[C@]1(O)C[C@@H]2CN(CCc3c([nH]c4ccccc34)[C@@](C(=O)OC)(c3cc4c(cc3OC)N(C)[C@H]3[C@@](O)(C(=O)OC)[C@H](OC(C)=O)[C@]5(CC)C=CCN6CC[C@]43[C@@H]65)C2)C1 [VBL, Vinblastine]
[3]
  IC50: 29.7 ± 1.77 µM
  change of cytotoxicity in presence of Pgp inhibitors Val or Ela: markedly sensitized
  increase in resistance of KBV1 cells compared to KB31 cells: 221 fold
[4]
  IC50: 130 ± 4 nM
  change of cytotoxicity in presence of Pgp inhibitors Val or Ela: no significant (p>0.05) change in cytotoxicity
[5]
  change of cytotoxicity in presence of Pgp inhibitors Val or Ela: abrogated the resistance
  sensitivity of 2008/P200A cells compared to 2008 cells: significantly higher resistance
[6]
  change of cytotoxicity in presence of Pgp inhibitors Val or Ela: did not significantly (p>0.05) affect the cytotoxicity
  sensitivity of 2008 cells: extremely sensitive
[7]
  effect of Pgp inhibitors Val and Ela on uptake: significantly (p<0.001) increased the uptake
[8]
  effect of Pgp inhibitors Val and Ela on uptake: did not significantly alter radiolabel uptake

## COc1cc2c(cc1OC)CN(CCc1ccc(NC(=O)c3cccc4c(=O)c5cccc(OC)c5[nH]c34)cc1)CC2 [Ela, Elacridar]
[9]
  effect on Rh123 accumulation: no significant effect on Rh123 accumulation

## COc1ccc(NC(=S)N=Nc2c(O)[nH]c3c(Cl)cc(Cl)cc23)cc1 [NSC73306]
[10]
  cytotoxicity to Pgp-expressing cells compared to parent cells: increased cytotoxicity to Pgp-expressing cells
[11]
  direct interaction with Pgp: no direct interaction

## CCNC(=S)NN=C(c1ccccc1)c1ccccn1 [Bp4eT, 2-benzoylpyridine-4-ethyl-3-thiosemicarbazone]
[3]
  more cytotoxic in drug-resistant KBV1 cells compared to KB31 cells: 6.7 fold
[5]
  sensitivity of 2008/P200A cells compared to 2008 cells: significantly (p<0.001) increased sensitivity
[1]; relative to basal activity
  Pgp-ATPase activity (in words): significant (p<0.001) stimulation of ATPase activity

## tetrathiolmolybdate [TM]
[12]; 5 μM, acetate buffer pH 5
  effect on redox activity / ROS generation of Cu[Dp44mT]: totally prevented

## [Cl][Cu][Cl] [CuCl2, copper(II) chloride]
[1]
  Pgp-ATPase activity (in words): Neither FeCl3 nor CuCl2 significantly stimulated ATPase activity
[2]
  lysosomal integrity (acridine orange): did not compromise lysosomal integrity
[12]; acetate buffer pH 5, cysteine, H2O2, over 12 min
  redox activity (H2DCF oxidation): no activity

## C/C=C/C[C@@H](C)C(=O)[C@H]1C(=O)N[C@@H](C(C)C)C(=O)N(C)CC(=O)N(C)[C@@H](CC(C)C)C(=O)N[C@@H](C(C)C)C(=O)N(C)[C@@H](CC(C)C)C(=O)N[C@@H](C)C(=O)N[C@H](C)C(=O)N(C)[C@@H](CC(C)C)C(=O)N(C)[C@@H](CC(C)C)C(=O)N(C)[C@@H](C(C)C)C(=O)N1C [Val, Valspodar]
[1]; Pgp-enriched membranes, 40 min
  decrease of ATPase activity relative to the basal control: 5 fold

## COc1cccc2c1C(=O)c1c(O)c3c(c(O)c1C2=O)C[C@@](O)(C(=O)CO)C[C@@H]3O[C@H]1C[C@H](N)[C@H](O)[C@H](C)O1 [DOX, Doxorubicin]
[3]
  IC50: 96.4 ± 10.1 µM
  change of cytotoxicity in presence of Pgp inhibitors Val or Ela: markedly sensitized
  increase in resistance of KBV1 cells compared to KB31 cells: 220 fold
[4]
  IC50: 440 ± 3 nM
  change of cytotoxicity in presence of Pgp inhibitors Val or Ela: no significant (p>0.05) change in cytotoxicity
[5]
  change of cytotoxicity in presence of Pgp inhibitors Val or Ela: abrogated the resistance
  sensitivity of 2008/P200A cells compared to 2008 cells: significantly higher resistance
[6]
  change of cytotoxicity in presence of Pgp inhibitors Val or Ela: did not significantly (p>0.05) affect the cytotoxicity
  sensitivity of 2008 cells: extremely sensitive
[13]
  decrease of IC50 by knockdown of Pgp: 15 fold
[7]
  effect of Pgp inhibitors Val and Ela on uptake: significantly (p<0.001) increased the uptake
[7]; control groups, 1 μCi
  cellular accumulation in KBV1 cells relative to KB31 cells: significantly (p<0.001) less
[8]
  effect of Pgp inhibitors Val and Ela on uptake: did not significantly alter radiolabel uptake
